According to PubChem BioAssay (NCI):
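1) Cells in 96-well plates. 2) Compound, 48 h, 5 concentrations. 3) Linear interpolation between surrounding doses. 4) Unreached endpoint = highest concentration. At the TGI there is no net growth.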

Legend:
Experiment in all cases: NCI anticancer screen, dose series, 48 h
HCC-2998 colon = tested on: HCC-2998 colon
HCT-15 colon = tested on: HCT-15 colon
SR leukemia = tested on: SR leukemia
KM20L2 colon = tested on: KM20L2 colon
OVCAR-3 ovarian = tested on: OVCAR-3 ovarian
CCRF-CEM leukemia = tested on: CCRF-CEM leukemia
KM12 colon = tested on: KM12 colon
RXF 393 renal = tested on: RXF 393 renal
LXFL 529 NSCLC = tested on: LXFL 529 NSCLC
ACHN renal = tested on: ACHN renal

SMILES	TGI (HCC-2998 colon)	TGI (HCT-15 colon)	TGI (SR leukemia)	TGI (KM20L2 colon)	TGI (OVCAR-3 ovarian)	TGI (CCRF-CEM leukemia)	TGI (KM12 colon)	TGI (RXF 393 renal)	TGI (LXFL 529 NSCLC)	TGI (ACHN renal)
COC(=O)C1C(=O)O[C@@H](c2ccc(OC)c(OC)c2OC)C1C(=O)OC (mixture of isomers)	> 100 µM	> 100 µM	> 100 µM	> 100 µM	> 100 µM	> 100 µM	> 100 µM	> 100 µM	> 100 µM	> 100 µM
COc1ccc(-c2ccccc2)c2[nH]c3c(c12)CCNC3=O	> 100 µM	> 100 µM	> 100 µM	> 100 µM	> 100 µM	> 100 µM	> 100 µM	> 100 µM	> 100 µM	–
CN(NC1OC(CO)C(O)C(O)C1O)c1ccccc1 (stereo not drawn)	> 100 µM	> 100 µM	> 100 µM	> 100 µM	> 100 µM	> 100 µM	> 100 µM	> 100 µM	> 100 µM	> 100 µM
O=C(CO[N+](=O)[O-])OC/C=C/c1ccccc1	> 100 µM	> 100 µM	> 100 µM	> 100 µM	> 100 µM	> 100 µM	> 100 µM	> 100 µM	> 100 µM	> 100 µM
CC1CCC(=O)C(C(O)CC2CC(=O)N(c3ccccc3)C(=O)C2)C1 (stereo not drawn)	> 100 µM	–	> 100 µM	> 100 µM	> 100 µM	> 100 µM	> 100 µM	> 100 µM	> 100 µM	> 100 µM
COC1OC(CBr)C(OC(=O)c2ccccc2)C(OS(=O)(=O)c2ccc(C)cc2)C1Br (stereo not drawn)	> 100 µM	> 100 µM	> 100 µM	> 100 µM	> 100 µM	> 100 µM	> 100 µM	> 100 µM	> 100 µM	> 100 µM
O=C1C2c3[nH]c4ccccc4c3C3CCCCCC3C2C(=O)N1c1ccccc1 (stereo not drawn)	> 100 µM	> 100 µM	> 53.9 µM	> 100 µM	35.7 µM	23.1 µM	> 100 µM	37.7 µM	> 100 µM	> 91.1 µM
CC(=O)OCC1OC(OCc2ccccc2)C(Br)C(OC(C)=O)C1OC(C)=O (stereo not drawn)	> 100 µM	> 100 µM	> 100 µM	> 100 µM	> 100 µM	> 100 µM	> 100 µM	> 100 µM	> 100 µM	> 100 µM
CC1=C(C(=O)NCc2ccccc2)C(c2ccccc2C)C(C(=O)NCc2ccccc2)=C(C)N1	> 60 µM	36.6 µM	81.1 µM	> 75.5 µM	45.5 µM	> 100 µM	58.8 µM	43.7 µM	> 95.9 µM	38.4 µM
O=C(N/C(=C\c1ccccc1Cl)c1nc2ccccc2[nH]1)c1ccccc1	91 µM	> 100 µM	79.3 µM	> 100 µM	> 100 µM	> 100 µM	> 100 µM	91.5 µM	> 100 µM	> 100 µM
